According to PubChem BioAssay AID1259407 (Chemical Carcinogenesis Research Information System (CCRIS), 2018):
Calls of active or inactive are those of the source. No rule for the calls is given here.

Tested on: CCRIS mutagenicity, Ames/micronucleus/aberration tests
Test: CCRIS mutagenicity studies
[1] = Test System: AMES SALMONELLA TYPHIMURIUM, Strain/Indicator: TA98, Metabolic Activation: RAT, LIVER, S-9, AROCLOR 1254, Method: STANDARD PLATE
[2] = Test System: AMES SALMONELLA TYPHIMURIUM, Strain/Indicator: TA100, Metabolic Activation: NONE, Method: PREINCUBATION
[3] = Test System: AMES SALMONELLA TYPHIMURIUM, Strain/Indicator: TA100, Metabolic Activation: RAT, LIVER, S-9, AROCLOR 1254, Method: STANDARD PLATE
[4] = Test System: AMES SALMONELLA TYPHIMURIUM, Strain/Indicator: TA98, Metabolic Activation: HAMSTER, LIVER, S-9, AROCLOR 1254 (10%), Method: PREINCUBATION
[5] = Test System: AMES SALMONELLA TYPHIMURIUM, Strain/Indicator: TA98, Metabolic Activation: NONE, Method: PREINCUBATION
[6] = Test System: AMES SALMONELLA TYPHIMURIUM, Strain/Indicator: TA98, Metabolic Activation: RAT, LIVER, S-9, AROCLOR 1254 (10%), Method: PREINCUBATION
[7] = Test System: AMES SALMONELLA TYPHIMURIUM, Strain/Indicator: TA100, Metabolic Activation: HAMSTER, LIVER, S-9, AROCLOR 1254 (10%), Method: PREINCUBATION
[8] = Test System: AMES SALMONELLA TYPHIMURIUM, Strain/Indicator: TA100, Metabolic Activation: RAT, LIVER, S-9, AROCLOR 1254 (10%), Method: PREINCUBATION
[9] = Test System: AMES SALMONELLA TYPHIMURIUM, Strain/Indicator: TA1535, Metabolic Activation: HAMSTER, LIVER, S-9, AROCLOR 1254 (10%), Method: PREINCUBATION
[10] = Test System: AMES SALMONELLA TYPHIMURIUM, Strain/Indicator: TA1535, Metabolic Activation: NONE, Method: PREINCUBATION
[11] = Test System: AMES SALMONELLA TYPHIMURIUM, Strain/Indicator: TA1535, Metabolic Activation: RAT, LIVER, S-9, AROCLOR 1254 (10%), Method: PREINCUBATION
[12] = Test System: AMES SALMONELLA TYPHIMURIUM, Strain/Indicator: TA1537, Metabolic Activation: HAMSTER, LIVER, S-9, AROCLOR 1254 (10%), Method: PREINCUBATION
[13] = Test System: AMES SALMONELLA TYPHIMURIUM, Strain/Indicator: TA1537, Metabolic Activation: NONE, Method: PREINCUBATION
[14] = Test System: AMES SALMONELLA TYPHIMURIUM, Strain/Indicator: TA1537, Metabolic Activation: RAT, LIVER, S-9, AROCLOR 1254 (10%), Method: PREINCUBATION
[15] = Test System: AMES SALMONELLA TYPHIMURIUM, Strain/Indicator: TA98, Metabolic Activation: NONE, Method: STANDARD PLATE
[16] = Test System: AMES SALMONELLA TYPHIMURIUM, Strain/Indicator: TA100, Metabolic Activation: NONE, Method: STANDARD PLATE

SMILES	mutagenic call [1]	mutagenic call [2]	mutagenic call [3]	mutagenic call [4]	mutagenic call [5]	mutagenic call [6]	mutagenic call [7]	mutagenic call [8]	mutagenic call [9]	mutagenic call [10]	mutagenic call [11]	mutagenic call [12]	mutagenic call [13]	mutagenic call [14]	mutagenic call [15]	mutagenic call [16]	further results
COc1cc2c(c3oc4cccc(O)c4c(=O)c13)[C@@H]1C=CO[C@@H]1O2	active; positive	active; positive	active; positive														mutagenic call (End Point: IN VITRO MICRONUCLEUS, Test System: AHH-1 CELLS, Metabolic Activation: NONE): active; positive; mutagenic call (End Point: IN VITRO MICRONUCLEUS, Test System: MCL-5 CELLS, Metabolic Activation: NONE): active; positive; mutagenic call (Test System: AMES SALMONELLA TYPHIMURIUM, Strain/Indicator: TA98, Metabolic Activation: R,L,S-9, PHENOBARBITAL, Method: STANDARD PLATE): inactive; negative; mutagenic call (Test System: AMES SALMONELLA TYPHIMURIUM, Strain/Indicator: TA98, Metabolic Activation: RAT, LIVER, MICROSOMES, PHENOBARBITAL, Method: STANDARD PLATE): active; positive; mutagenic call (Test System: AMES SALMONELLA TYPHIMURIUM, Strain/Indicator: TA98, Metabolic Activation: RAT, LIVER, S-9, KC500 OR PHENOBARBITAL, Method: LIQUID SUSPENSION): active; positive; mutagenic call (Test System: AMES SALMONELLA TYPHIMURIUM, Strain/Indicator: TA98, Metabolic Activation: RAT, LIVER, S-9, PHENOBARBITAL, Method: STANDARD PLATE): inactive; negative; mutagenic call (Test System: AMES SALMONELLA TYPHIMURIUM, Strain/Indicator: TA100, Metabolic Activation: R,L,S-9, PHENOBARBITAL, Method: STANDARD PLATE): active; positive; mutagenic call (Test System: AMES SALMONELLA TYPHIMURIUM, Strain/Indicator: TA100, Metabolic Activation: RAT, LIVER, MICROSOMES, PHENOBARBITAL, Method: STANDARD PLATE): active; positive; mutagenic call (Test System: AMES SALMONELLA TYPHIMURIUM, Strain/Indicator: TA100, Metabolic Activation: RAT, LIVER, S-9, KC500 OR PHENOBARBITAL, Method: LIQUID SUSPENSION): active; positive; mutagenic call (Test System: AMES SALMONELLA TYPHIMURIUM, Strain/Indicator: TA100, Metabolic Activation: RAT, LIVER, S-9, PHENOBARBITAL, Method: PREINCUBATION): active; positive; mutagenic call (Test System: AMES SALMONELLA TYPHIMURIUM, Strain/Indicator: TA100, Metabolic Activation: RAT, LIVER, S-9, PHENOBARBITAL, Method: STANDARD PLATE): active; positive; mutagenic call (Test System: AMES SALMONELLA TYPHIMURIUM, Strain/Indicator: TA1538, Metabolic Activation: RAT, LIVER, S-9, AROCLOR 1254, Method: STANDARD PLATE): active; positive; mutagenic call (Test System: UDS HUMAN CELLS, Strain/Indicator: THY INCORP (NON-S-PHASE), Metabolic Activation: RAT, LIVER, S-9, PHENOBARBITAL, Method: LIQUID SCINTILLATION COUNTING): active; positive; mutagenic call (Test System: UDS HUMAN FIBROBLASTS, Strain/Indicator: THY INCORP (NON-S-PHASE), Metabolic Activation: MOUSE, LIVER, S-9, Method: AUTORADIOGRAPHY): active; positive
COc1cc2c(cc1OC)[C@@]13CCN4CC5=CCO[C@H]6CC(=O)N2[C@H]1[C@H]6[C@H]5C[C@H]43		inactive; negative		inactive; negative	inactive; negative	inactive; negative	inactive; negative	inactive; negative	inactive; negative	inactive; negative	inactive; negative	inactive; negative	inactive; negative	inactive; negative			
CCOC(=O)CCBr																	mutagenic call (End Point: IN VITRO CHROMOSOMAL ABERRATIONS, Test System: CHL CELLS, Metabolic Activation: NONE): active; positive (structural changes); mutagenic call (End Point: IN VITRO CHROMOSOMAL ABERRATIONS, Test System: CHL CELLS, Metabolic Activation: RAT, LIVER, S-9, SODIUM PHENOBARBITAL AND 5,6-BENZOFLAVONE): active; positive (structural changes)
[Cu+2].[O-]c1cccc2cccnc12.[O-]c1cccc2cccnc12															inactive; negative	inactive; negative	mutagenic call (Test System: AMES SALMONELLA TYPHIMURIUM, Strain/Indicator: TA98, Metabolic Activation: RAT LIVER S-9, AROCLOR 1254, Method: STANDARD PLATE): inactive; negative; mutagenic call (Test System: AMES SALMONELLA TYPHIMURIUM, Strain/Indicator: TA100, Metabolic Activation: RAT LIVER S-9, AROCLOR 1254, Method: STANDARD PLATE): active; positive
CCOCCO	inactive; negative	inactive; negative	inactive; negative	inactive; negative	inactive; negative	inactive; negative	inactive; negative	inactive; negative	inactive; negative	inactive; negative	inactive; negative	inactive; negative	inactive; negative	inactive; negative	inactive; negative	inactive; negative	mutagenic call (End Point: IN VITRO CHROMOSOMAL ABERRATIONS, Test System: CHINESE HAMSTER OVARY CELLS, Metabolic Activation: RAT, LIVER, S-9, AROCLOR 1254): inactive; negative; mutagenic call (Test System: AMES SALMONELLA TYPHIMURIUM, Strain/Indicator: TA97A, Metabolic Activation: NONE, Method: STANDARD PLATE): inactive; negative; mutagenic call (Test System: AMES SALMONELLA TYPHIMURIUM, Strain/Indicator: TA97A, Metabolic Activation: RAT, LIVER, S-9, AROCLOR 1254, Method: STANDARD PLATE): inactive; negative; mutagenic call (Test System: AMES SALMONELLA TYPHIMURIUM, Strain/Indicator: TA98, Metabolic Activation: RAT, LIVER, S-9, KC 500, Method: PREINCUBATION): inactive; negative; mutagenic call (Test System: AMES SALMONELLA TYPHIMURIUM, Strain/Indicator: TA100, Metabolic Activation: RAT, LIVER, S-9, KC 500, Method: PREINCUBATION): inactive; negative; mutagenic call (Test System: AMES SALMONELLA TYPHIMURIUM, Strain/Indicator: TA102, Metabolic Activation: NONE, Method: STANDARD PLATE): inactive; negative; mutagenic call (Test System: AMES SALMONELLA TYPHIMURIUM, Strain/Indicator: TA102, Metabolic Activation: RAT, LIVER, S-9, AROCLOR 1254, Method: STANDARD PLATE): inactive; negative; mutagenic call (Test System: AMES SALMONELLA TYPHIMURIUM, Strain/Indicator: TA1535, Metabolic Activation: RAT, LIVER, S-9, KC 500, Method: PREINCUBATION): inactive; negative; mutagenic call (Test System: AMES SALMONELLA TYPHIMURIUM, Strain/Indicator: TA1537, Metabolic Activation: RAT, LIVER, S-9, KC 500, Method: PREINCUBATION): inactive; negative; mutagenic call (Test System: AMES SALMONELLA TYPHIMURIUM, Strain/Indicator: TA1538, Metabolic Activation: NONE, Method: PREINCUBATION): inactive; negative; mutagenic call (Test System: AMES SALMONELLA TYPHIMURIUM, Strain/Indicator: TA1538, Metabolic Activation: RAT, LIVER, S-9, KC 500, Method: PREINCUBATION): inactive; negative; mutagenic call (Test System: E. COLI, Strain/Indicator: WP2 UVRA, Metabolic Activation: NONE, Method: PREINCUBATION): inactive; negative; mutagenic call (Test System: E. COLI, Strain/Indicator: WP2 UVRA, Metabolic Activation: RAT, LIVER, S-9, KC 500, Method: PREINCUBATION): inactive; negative
